Data taken from patent publication US20230095530A1, “COMPOUND USED AS RET KINASE INHIBITOR AND APPLICATION THEREOF” (TYK Medicines, Inc., priority 2019, published 2023).
Like-named read-outs stand apart in the source and are kept apart here.

Tests used:
wild-type RET kinase = wild-type RET kinase (Homo sapiens, UniProt P07949); assay: Kinase activity assay against wild-type RET at ATP Km (33P-ATP, filter-binding); assay type: biochemical; details: ATP Km concentration, 10 concentrations
Experimental: […]. The biological activity screening of the compounds will be determined repeatedly at 10 concentrations.
Each sample was prepared into a solution with a concentration of 10 mM.
The test compound was dissolved in 100% dimethyl sulfoxide to a specific concentration. Integra Viaflo Assist was used to assist DMSO for (continuous) dilution.
Adding kinase into the newly prepared basic reaction buffer:
Adding any desired cofactors to the substrate solution;
Adding wild-type RET kinase into the substrate solution and gently mixing;
Using Acoustic technology (Echo 550; nanoliter range) to feed the compounds in 100% of dimethyl sulfoxide into the kinase reaction mixture and incubated at room temperature for 20 minutes.
Adding 33P-ATP (specific activity 10 Ci/1) into the reaction mixture to start the reaction.
Incubated at room temperature for 2 hours;
Radioactivity was detected by filter-binding method;
Kinase activity data was expressed as the percentage of remaining kinase activity in the test sample compared to the vehicle (dimethyl sulfoxide) reaction. Prism (GRAPHPAD software) was used to obtain IC50 value and curve-fitting.

[1] = system: tumor patients with RET fusion and mutation; details: phase I, cited from earlier work

Sequence of wild-type RET kinase (P07949 29-1114): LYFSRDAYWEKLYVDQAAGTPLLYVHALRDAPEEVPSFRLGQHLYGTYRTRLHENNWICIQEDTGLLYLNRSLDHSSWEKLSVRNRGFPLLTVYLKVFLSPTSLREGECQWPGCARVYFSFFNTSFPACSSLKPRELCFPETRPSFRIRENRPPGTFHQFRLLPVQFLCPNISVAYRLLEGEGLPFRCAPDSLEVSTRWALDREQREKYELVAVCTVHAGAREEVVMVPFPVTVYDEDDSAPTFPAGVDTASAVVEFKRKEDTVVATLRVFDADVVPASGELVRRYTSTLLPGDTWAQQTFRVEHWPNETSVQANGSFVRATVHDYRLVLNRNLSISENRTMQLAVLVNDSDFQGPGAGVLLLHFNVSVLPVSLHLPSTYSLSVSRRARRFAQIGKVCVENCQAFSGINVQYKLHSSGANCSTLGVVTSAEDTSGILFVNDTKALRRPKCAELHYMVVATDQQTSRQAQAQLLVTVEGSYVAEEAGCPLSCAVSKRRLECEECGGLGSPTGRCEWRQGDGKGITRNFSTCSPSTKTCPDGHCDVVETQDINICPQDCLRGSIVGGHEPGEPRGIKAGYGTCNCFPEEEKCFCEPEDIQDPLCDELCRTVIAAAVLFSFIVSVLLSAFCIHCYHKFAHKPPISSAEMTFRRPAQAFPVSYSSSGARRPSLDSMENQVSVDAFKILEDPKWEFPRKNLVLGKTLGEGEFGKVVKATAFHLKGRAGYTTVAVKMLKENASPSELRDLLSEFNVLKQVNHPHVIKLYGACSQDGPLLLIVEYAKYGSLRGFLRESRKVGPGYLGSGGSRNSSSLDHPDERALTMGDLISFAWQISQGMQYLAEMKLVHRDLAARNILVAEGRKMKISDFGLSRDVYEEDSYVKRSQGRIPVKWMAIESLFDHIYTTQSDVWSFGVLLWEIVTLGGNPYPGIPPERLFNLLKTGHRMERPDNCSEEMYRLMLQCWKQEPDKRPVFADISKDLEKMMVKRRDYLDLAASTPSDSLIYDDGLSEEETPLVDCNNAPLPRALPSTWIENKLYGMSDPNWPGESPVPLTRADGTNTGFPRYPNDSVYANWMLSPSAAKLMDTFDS

IC50 (wild-type RET kinase) [nM]	Structure (SMILES)	further results
1.56	COc1ccc(CN2CCC(n3cc(-c4cc(-c5cnn(C)c5)cn5ncc(C#N)c45)cn3)C2)cn1 (stereo not drawn) [Compound C1]	
	CO[C@]1(C(=O)N[C@@H](C)c2ccc(-n3cc(F)cn3)nc2)CC[C@H](c2nc(C)cc(Nc3cc(C)[nH]n3)n2)CC1 [BLU-667]	ORR ([1]; patients with medullary thyroid carcinoma): 40%; ORR ([1]; patients with non-small cell lung cancer): 50%; overall remission rate (ORR) ([1]; tumor patients with RET fusion and mutation): 45%
226	COc1ccc(CN2C3CC2CN(c2ccc(-c4cc(OCC(C)(C)O)cc5nccc(C#N)c45)cn2)C3)cn1 [Compound C3]	
40.7	COc1ccc(CN2CCC(n3ccc(-c4cc(-c5cnn(C)c5)cn5ncc(C#N)c45)cc3=O)C2)cn1 (stereo not drawn) [Compound C5]	
58	COc1ccc(CN2CCC(n3ccc(-c4cc(-c5cnn(C)c5)cn5ncc(C#N)c45)cc3=O)CC2)cn1 [Compound C8]	
27.3	COc1ccc(CN2CCCC(n3ccc(-c4cc(-c5cnn(C)c5)cn5ncc(C#N)c45)cc3=O)C2)cn1 (stereo not drawn) [Compound C7]	
3.52	COc1ccc(CN2CCCC(n3cc(-c4cc(-c5cnn(C)c5)cn5ncc(C#N)c45)cn3)C2)cn1 (stereo not drawn) [Compound C2]	
